In patent US20110301142A1, “ANTAGONISTS OF LYSOPHOSPHATIDIC ACID RECEPTORS” (priority 2008, published 2011) one finds IC50 data, which are given here for 23 compounds.

The target in this assay is T1, human LPA1 (Homo sapiens, UniProt Q92633).
T1 construct: the full-length cDNA for human LPA1 was obtained by PCR of the reverse transcription reaction; expressed in transfected cells
T1 sequence (Q92633 whole entry): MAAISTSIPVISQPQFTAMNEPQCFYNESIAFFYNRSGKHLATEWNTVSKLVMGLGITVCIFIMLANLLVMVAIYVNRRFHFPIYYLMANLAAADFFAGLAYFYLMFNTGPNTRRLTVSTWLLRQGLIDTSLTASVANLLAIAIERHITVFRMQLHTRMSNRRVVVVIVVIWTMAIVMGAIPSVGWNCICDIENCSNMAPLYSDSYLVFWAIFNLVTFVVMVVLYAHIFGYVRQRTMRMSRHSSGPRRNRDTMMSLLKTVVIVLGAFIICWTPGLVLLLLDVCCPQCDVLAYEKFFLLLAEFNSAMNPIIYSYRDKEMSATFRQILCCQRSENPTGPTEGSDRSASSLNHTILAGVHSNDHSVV
Nature of the assay: LPA1 calcium flux assay (HLPA1 Ca Flux). It is filed as cell-based. The conditions noted are these: Human LPA1 expressing CHO cells, stimulated with 10 nM LPA. As for the experimental part: A 1.1 kb cDNA encoding the human LPA1 receptor was cloned from human lung. Human lung RNA (Clontech Laboratories, Inc. USA) was reverse transcribed using the RETROscript kit (Ambion, Inc.) and the full-length cDNA for human LPA1 was obtained by PCR of the reverse transcription reaction. The nucleotide sequence of the cloned human LPA1 was determined by sequencing and confirmed to be identical to the published human LPA1 sequence (An et al. Biochem. Biophys. Res. Commun. 231:619 (1997). The cDNA was cloned into the pcDNAS/FRT expression plasmid and transfected in CHO cells using lipofectamine 2000 (Invitrogen Corp., USA). Clones stably expressing human LPA1 were selected using hygromycin and identified as cells that show Ca-influx in response to LPA.
Human LPA1 or LPA3 expressing CHO cells are seeded at 20,000-45,000 cells per well in a 96-well poly-D-lysine coated plate one or two days before the assay. Prior to the assay, the cells are washed once with PBS and then cultured in serum-free media overnight. On the day of the assay, a calcium indicator dye (Calcium 4, Molecular Devices) in assay buffer (HBSS with Ca^2+ and Mg^2+ and containing 20 mM Hepes and 0.3% fatty-acid free human serum albumin) is added to each well and incubation continued for 1 hour at 37° C. 10 μl of test compounds in 2.5% DMSO are added to the cells and incubation continued at room temperature for 30 minutes. Cells are the stimulated by the addition of 10 nM LPA and intracellular Ca^2+ measured using the Flexstation 3 (Molecular Devices). IC50s are determined using Graphpad prism analysis of drug titration curves.
For the compound `Cc1noc(-c2cccc(-c3cncc(CC(=O)O)c3)c2)c1NC(=O)OC(C)c1ccccc1Cl` (centres unmarked) [Compound 1-41, [5-(3-{4-[1-(2-Chloro-phenyl)-ethoxycarbonylamino]-3-methyl-isoxazol-5-yl}-phenyl)-pyridin-3-yl]acetic acid], the IC50 was in the range of 1000 to 50000 nM. With `COc1ccc(C(C)OC(=O)Nc2c(C)noc2-c2ccc(-c3ccc(CC(=O)O)cc3)cc2)c(F)c1` (centres unmarked) [Compound 1-118, (4′-{4-[1-(2-Fluoro-4-methoxy-phenyl)-ethoxycarbonylamino]-3-methyl-isoxazol-5-yl}-biphenyl-4-yl)-acetic acid] the figure was 300 to 1000 nM; with `Cc1cc(-c2onc(C)c2NC(=O)O[C@H](C)c2ccccc2F)ccc1-c1ccc(C(C)C(=O)O)cc1` (stereo partly drawn) [Compound 1-110, 2-(4′-{4-[(R)-1-(2-Fluoro-phenyl)-ethoxycarbonylamino]-3-methyl-isoxazol-5-yl}-2′-methyl-biphenyl-4-yl)-propionic acid], < 300 nM; with `Cc1noc(-c2csc(-c3ccc(CC(=O)O)cc3)n2)c1NC(=O)O[C@H](C)c1ccccc1F` [Compound 3-3, [4-(4-{4-[(R)-1-(2-Fluoro-phenyl)-ethoxycarbonylamino]-3-methyl-isoxazol-5-yl}-thiazol-2-yl)-phenyl]-acetic acid], 1000 to 50000 nM. With `Cc1noc(-c2ccc(-c3cccc(C(=O)O)c3)cc2)c1NC(=O)OC1CCc2ccccc21` (centres unmarked) [Compound 1-16, 4′-[4-(Indan-1-yloxycarbonylamino)-3-methyl-isoxazol-5-yl]-biphenyl-3-carboxylic acid] the figure was > 50000 nM; with `Cc1noc(-c2ccc(Cc3ccccc3CC(=O)O)cc2)c1NC(=O)OC(C)c1ccccc1Cl` (centres unmarked) [Compound 1-22, [2-(4-{4-[1-(2-Chloro-phenyl)-ethoxycarbonylamino]-3-methyl-isoxazol-5-yl}-benzyl)-phenyl]-acetic acid], < 300 nM. With `Cc1noc(-c2csc(-c3ccccc3CC(=O)O)n2)c1NC(=O)O[C@H](C)c1ccccc1F` [Compound 3-5, [2-(4-{4-[(R)-1-(2-Fluoro-phenyl)-ethoxycarbonylamino]-3-methyl-isoxazol-5-yl}-thiazol-2-yl)-phenyl]acetic acid], the half-inhibitory concentration (IC50) fell in the range of 1000 to 50000 nM. As to `CCOC(=O)Cc1ccc(-c2ccc(-c3onc(C)c3NC(=O)OC(C)c3ccccc3F)cn2)cc1` (centres unmarked) [Compound 1-47], the 50% inhibitory concentration (IC50) is 300 to 1000 nM. With `Cc1noc(-c2ccc(-c3nnn(CC(=O)O)n3)cc2)c1NC(=O)O[C@H](C)c1ccccc1F` [Compound 1-135, [5-(4-{4-[(R)-1-(2-Fluoro-phenyl)-ethoxycarbonylamino]-3-methyl-isoxazol-5-yl}-phenyl)-tetrazol-2-yl]-acetic acid] the figure was 1000 to 50000 nM. With `Cc1noc(-c2ccc(-c3ccc(CC(=O)O)cc3)cn2)c1NC(=O)OC(C)c1ccccc1Cl` (centres unmarked) [Compound 1-73] the figure was < 300 nM. With `Cc1noc(-c2ccc3cc(-c4ccc(CSCCC(=O)O)cc4)ccc3c2)c1NC(=O)OC(C)c1ccccc1Cl` (centres unmarked) [Compound 3-2, 3-[4-(6-{4-[1-(2-Chloro-phenyl)-ethoxycarbonylamino]-3-methyl-isoxazol-5-yl}-naphthalen-2-yl)-benzylsulfanyl]-propionic acid] the figure was 300 to 1000 nM; with `Cc1noc(-c2cccc(-c3cc(C(=O)O)ccn3)c2)c1NC(=O)OC(C)c1ccccc1Cl` (centres unmarked) [Compound 1-35, 2-(3-{4-[1-(2-Chloro-phenyl)-ethoxycarbonylamino]-3-methyl-isoxazol-5-yl}-phenyl)-isonicotinic acid], 300 to 1000 nM. For `Cc1noc(-c2cccc(-c3ccc(CC(=O)O)cc3)c2)c1NC(=O)OC(C)c1ccccc1Cl` (centres unmarked) [Compound 1-39, (3′-{4-[1-(2-Chloro-phenyl)-ethoxycarbonylamino]-3-methyl-isoxazol-5-yl}-biphenyl-4-yl)-acetic acid], the IC50 was 1000 to 50000 nM. With `Cc1noc(-c2ccc(-c3ccc(CC(=O)O)cc3)cc2)c1NC(=O)OC(C)Cc1ccccc1` (centres unmarked) [Compound 1-29, {4′-[3-Methyl-4-(1-methyl-2-phenyl-ethoxycarbonylamino)-isoxazol-5-yl]-biphenyl-4-yl}-acetic acid] the figure was 300 to 1000 nM.

For the compound `Cc1noc(-c2ccc(-c3ccc(CC(=O)O)cc3)cc2)c1NC(=O)OC(C)c1c(Cl)cccc1Cl` (centres unmarked) [Compound 1-101, (4′-{4-[1-(2,6-Dichloro-phenyl)-ethoxycarbonylamino]-3-methyl-isoxazol-5-yl}-biphenyl-4-yl)-acetic acid], the IC50 was 1000 to 50000 nM. For `Cc1noc(-c2cccc(-c3ccc(F)c(CC(=O)O)c3)c2)c1NC(=O)OC(C)c1ccccc1Cl` (centres unmarked) [Compound 1-43, (3′-{4-[1-(2-Chloro-phenyl)-ethoxycarbonylamino]-3-methyl-isoxazol-5-yl}-4-fluoro-biphenyl-3-yl)-acetic acid], the IC50 fell in the range of 1000 to 50000 nM. Regarding `CCOC(=O)Cc1ccc(Oc2ccc(-c3onc(C)c3NC(=O)O[C@H](C)c3ccccc3F)cc2)cc1` [Compound 1-83, [4-(4-{4-[(R)-1-(2-Fluoro-phenyl)-ethoxycarbonylamino]-3-methyl-isoxazol-5-yl}-phenoxy)-phenyl]-acetic acid ethyl ester], the half-inhibitory concentration (IC50) was 300 to 1000 nM. With `CC(=O)NC(=N)Cc1ccc(-c2ccc(-c3onc(C)c3NC(=O)O[C@H](C)c3ccccc3F)cc2)cc1` [Compound 2-7, {5-[4′-(2-Acetylamino-2-imino-ethyl)-biphenyl-4-yl]-3-methyl-isoxazol-4-yl}-carbamic acid (R)-1-(2-fluoro-phenyl)-ethyl ester] the figure was < 300 nM.

For the compound `Cc1cccc(COC(=O)Nc2c(C)noc2-c2ccc(-c3cccc(C(=O)O)c3)cc2)n1` [Compound 1-13, 4′-[3-Methyl-4-(6-methyl-pyridin-2-ylmethoxycarbonylamino)-isoxazol-5-yl]-biphenyl-3-carboxylic acid], the half-maximal inhibitory concentration (IC50) was in the range of 1000 to 50000 nM. `Cc1noc(-c2ccc(-c3ccc(CCCC(=O)O)cc3)cc2)c1NC(=O)OC(C)c1ccccc1Cl` (centres unmarked) [Compound 1-75, 4-(4′-{4-[1-(2-Chloro-phenyl)-ethoxycarbonylamino]-3-methyl-isoxazol-5-yl}-biphenyl-4-yl)-butyric acid]: the IC50 is < 300 nM. With `Cc1noc(-c2ccc(Sc3ccc(CC(=O)O)cn3)cc2)c1NC(=O)O[C@H](C)c1ccccc1F` [Compound 1-108, [6-(4-{4-[(R)-1-(2-Fluoro-phenyl)-ethoxycarbonylamino]-3-methyl-isoxazol-5-yl}-phenylsulfanyl)-pyridin-3-yl]-acetic acid] the figure was < 300 nM; with `Cc1noc(-c2ccc(Sc3cccc(CC(=O)O)c3)cc2)c1NC(=O)O[C@H](C)c1ccccc1F` [Compound 1-106, [3-(4-{4-[(R)-1-(2-Fluoro-phenyl)-ethoxycarbonylamino]-3-methyl-isoxazol-5-yl}-phenylsulfanyl)-phenyl]-acetic acid], 300 to 1000 nM; with `COC(=O)Cn1nnc(-c2ccc(-c3onc(C)c3NC(=O)O[C@H](C)c3ccccc3F)cc2)n1` [Compound 1-134, [5-(4-{4-[(R)-1-(2-Fluoro-phenyl)-ethoxycarbonylamino]-3-methyl-isoxazol-5-yl}-phenyl)-tetrazol-2-yl]-acetic acid methyl ester], 1000 to 50000 nM.

The IC50 is the concentration that gives 50% inhibition.
